According to ChEMBL document CHEMBL5465560, “Selectivity Literature for EUbOPEN Chemogenomic Library” (2024):

Columns and labels:
[1] = molecular target: Serine/threonine-protein kinase 38-like (Homo sapiens) (UniProt Q9Y2H1); settings: at 10 µM
[2] = molecular target: T1, Atypical kinase COQ8B, mitochondrial (Homo sapiens) (UniProt Q96D53); assay: Selectivity interaction (KinomeScan (DiscoverX)) EUB0000655a ADCK4; settings: at 10 µM
T1 sequence (whole entry): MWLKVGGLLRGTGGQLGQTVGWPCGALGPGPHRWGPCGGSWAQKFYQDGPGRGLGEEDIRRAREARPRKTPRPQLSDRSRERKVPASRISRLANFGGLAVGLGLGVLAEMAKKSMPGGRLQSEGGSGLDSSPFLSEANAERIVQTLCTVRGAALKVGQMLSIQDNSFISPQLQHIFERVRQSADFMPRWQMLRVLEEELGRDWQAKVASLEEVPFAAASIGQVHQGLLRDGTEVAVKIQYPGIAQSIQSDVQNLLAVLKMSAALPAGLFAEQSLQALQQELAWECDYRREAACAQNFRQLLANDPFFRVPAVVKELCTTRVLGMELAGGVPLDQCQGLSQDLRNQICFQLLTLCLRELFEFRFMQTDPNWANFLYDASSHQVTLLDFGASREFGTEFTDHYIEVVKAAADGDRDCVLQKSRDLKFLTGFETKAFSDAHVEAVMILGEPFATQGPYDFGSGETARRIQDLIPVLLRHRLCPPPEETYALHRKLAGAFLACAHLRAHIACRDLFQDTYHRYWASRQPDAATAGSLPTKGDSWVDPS

[3] = molecular target: LIM domain kinase 2 (Homo sapiens) (UniProt P53671); assay: Selectivity interaction (ProQinase) EUB0000171b LIMK2
LIM domain kinase 2 (Homo sapiens), sequence (P53671 whole entry, looked up, the tested form may be a part): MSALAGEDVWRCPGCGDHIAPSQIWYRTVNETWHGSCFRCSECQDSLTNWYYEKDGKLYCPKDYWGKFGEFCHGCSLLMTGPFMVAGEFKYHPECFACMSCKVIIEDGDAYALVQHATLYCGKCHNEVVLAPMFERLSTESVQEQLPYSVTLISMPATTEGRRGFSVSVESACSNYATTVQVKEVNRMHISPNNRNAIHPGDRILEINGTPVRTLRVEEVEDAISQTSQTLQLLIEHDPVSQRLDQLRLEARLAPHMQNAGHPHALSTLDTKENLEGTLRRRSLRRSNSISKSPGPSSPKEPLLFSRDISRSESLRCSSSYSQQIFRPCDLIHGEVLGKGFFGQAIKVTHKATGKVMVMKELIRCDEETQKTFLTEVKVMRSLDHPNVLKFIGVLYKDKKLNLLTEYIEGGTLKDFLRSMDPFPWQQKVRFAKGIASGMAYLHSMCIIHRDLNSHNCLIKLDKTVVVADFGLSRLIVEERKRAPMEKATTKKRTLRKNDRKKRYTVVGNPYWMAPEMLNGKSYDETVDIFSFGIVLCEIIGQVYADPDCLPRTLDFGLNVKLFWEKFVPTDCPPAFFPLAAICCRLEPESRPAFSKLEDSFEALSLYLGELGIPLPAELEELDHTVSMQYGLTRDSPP

[4] = molecular target: Serine/threonine-protein kinase WNK3 (Homo sapiens) (UniProt Q9BYP7); assay: Selectivity interaction (KinomeScan (DiscoverX)) EUB0001079a WNK3; settings: at 1 µM
[5] = molecular target: Tyrosine-protein kinase Yes (Homo sapiens) (UniProt P07947); assay: Selectivity interaction (Millipore kinase profiler) EUB0000124b YES1; settings: at 10 µM
Tyrosine-protein kinase Yes (Homo sapiens), sequence (P07947 2-543 limits assumed): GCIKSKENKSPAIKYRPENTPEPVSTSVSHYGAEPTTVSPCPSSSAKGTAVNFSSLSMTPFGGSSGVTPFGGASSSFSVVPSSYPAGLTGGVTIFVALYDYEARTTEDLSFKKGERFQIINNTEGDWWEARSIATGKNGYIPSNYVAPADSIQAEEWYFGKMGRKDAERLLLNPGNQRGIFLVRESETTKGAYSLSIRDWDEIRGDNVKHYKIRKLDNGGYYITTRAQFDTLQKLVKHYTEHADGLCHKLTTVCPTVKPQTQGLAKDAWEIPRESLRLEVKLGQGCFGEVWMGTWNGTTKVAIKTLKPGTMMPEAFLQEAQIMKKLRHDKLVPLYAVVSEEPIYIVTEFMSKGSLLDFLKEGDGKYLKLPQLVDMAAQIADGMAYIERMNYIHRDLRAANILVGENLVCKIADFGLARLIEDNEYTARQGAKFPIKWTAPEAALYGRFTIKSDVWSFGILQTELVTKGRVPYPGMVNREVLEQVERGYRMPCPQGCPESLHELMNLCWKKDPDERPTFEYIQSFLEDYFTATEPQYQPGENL

[6] = molecular target: RAC-beta serine/threonine-protein kinase (Homo sapiens) (UniProt P31751); assay: Selectivity interaction (Kinase panel (Invitrogen)) EUB0000639a AKT2; settings: at 200 nM
RAC-beta serine/threonine-protein kinase (Homo sapiens), sequence (P31751 whole entry): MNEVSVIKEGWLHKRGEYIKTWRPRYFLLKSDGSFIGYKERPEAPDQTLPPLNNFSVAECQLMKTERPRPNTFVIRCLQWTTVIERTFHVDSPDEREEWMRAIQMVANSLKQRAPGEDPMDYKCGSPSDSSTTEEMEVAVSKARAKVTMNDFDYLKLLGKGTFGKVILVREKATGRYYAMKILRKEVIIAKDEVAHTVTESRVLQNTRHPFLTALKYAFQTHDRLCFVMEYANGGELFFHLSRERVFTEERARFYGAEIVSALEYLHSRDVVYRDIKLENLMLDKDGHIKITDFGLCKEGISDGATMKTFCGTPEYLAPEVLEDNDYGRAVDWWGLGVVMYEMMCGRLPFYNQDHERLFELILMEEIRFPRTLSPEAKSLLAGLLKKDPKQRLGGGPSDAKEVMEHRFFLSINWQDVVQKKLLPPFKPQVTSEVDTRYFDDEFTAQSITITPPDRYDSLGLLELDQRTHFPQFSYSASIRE

[7] = molecular target: Protein-tyrosine kinase 2-beta (Homo sapiens) (UniProt Q14289); assay: Selectivity interaction (ActivX KiNativ screen (kinase selectivity in THP-1 cell lysates)) EUB0000639a PTK2B; type: subcellular; settings: lysate, at 5 µM
Protein-tyrosine kinase 2-beta (Homo sapiens), sequence (Q14289 whole entry, looked up): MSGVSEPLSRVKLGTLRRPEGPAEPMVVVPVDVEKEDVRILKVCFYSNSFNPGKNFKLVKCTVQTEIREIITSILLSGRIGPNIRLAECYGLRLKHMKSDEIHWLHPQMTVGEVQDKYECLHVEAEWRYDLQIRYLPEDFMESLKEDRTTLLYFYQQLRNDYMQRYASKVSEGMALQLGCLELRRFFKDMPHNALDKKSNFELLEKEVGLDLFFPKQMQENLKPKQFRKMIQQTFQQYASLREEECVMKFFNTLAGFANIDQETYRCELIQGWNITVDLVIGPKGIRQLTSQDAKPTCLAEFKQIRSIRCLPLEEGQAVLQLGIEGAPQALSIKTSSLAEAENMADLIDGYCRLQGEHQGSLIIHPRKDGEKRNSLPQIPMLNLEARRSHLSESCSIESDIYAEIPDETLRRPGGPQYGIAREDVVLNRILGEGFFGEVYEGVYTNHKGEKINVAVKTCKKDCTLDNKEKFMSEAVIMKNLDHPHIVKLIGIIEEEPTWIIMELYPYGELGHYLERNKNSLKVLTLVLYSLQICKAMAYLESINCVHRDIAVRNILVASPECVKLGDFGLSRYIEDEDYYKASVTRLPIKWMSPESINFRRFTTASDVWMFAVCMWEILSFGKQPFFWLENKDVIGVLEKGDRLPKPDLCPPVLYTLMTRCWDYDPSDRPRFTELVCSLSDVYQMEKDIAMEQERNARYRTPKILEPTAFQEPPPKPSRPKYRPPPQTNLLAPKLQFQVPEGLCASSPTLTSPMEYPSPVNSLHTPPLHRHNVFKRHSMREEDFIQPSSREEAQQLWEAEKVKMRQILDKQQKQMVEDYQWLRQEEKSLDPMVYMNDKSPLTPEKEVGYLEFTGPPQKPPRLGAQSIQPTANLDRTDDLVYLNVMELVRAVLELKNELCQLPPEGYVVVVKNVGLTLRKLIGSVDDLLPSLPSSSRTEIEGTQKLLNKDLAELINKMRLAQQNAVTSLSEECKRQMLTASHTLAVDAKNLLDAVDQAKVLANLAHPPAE

[8] = molecular target: T2, Beta-adrenergic receptor kinase 1 (Homo sapiens) (UniProt P25098); assay: Selectivity interaction (KinomeScan (DiscoverX)) EUB0001049a ADRBK1; settings: at 1 µM
T2 sequence (whole entry): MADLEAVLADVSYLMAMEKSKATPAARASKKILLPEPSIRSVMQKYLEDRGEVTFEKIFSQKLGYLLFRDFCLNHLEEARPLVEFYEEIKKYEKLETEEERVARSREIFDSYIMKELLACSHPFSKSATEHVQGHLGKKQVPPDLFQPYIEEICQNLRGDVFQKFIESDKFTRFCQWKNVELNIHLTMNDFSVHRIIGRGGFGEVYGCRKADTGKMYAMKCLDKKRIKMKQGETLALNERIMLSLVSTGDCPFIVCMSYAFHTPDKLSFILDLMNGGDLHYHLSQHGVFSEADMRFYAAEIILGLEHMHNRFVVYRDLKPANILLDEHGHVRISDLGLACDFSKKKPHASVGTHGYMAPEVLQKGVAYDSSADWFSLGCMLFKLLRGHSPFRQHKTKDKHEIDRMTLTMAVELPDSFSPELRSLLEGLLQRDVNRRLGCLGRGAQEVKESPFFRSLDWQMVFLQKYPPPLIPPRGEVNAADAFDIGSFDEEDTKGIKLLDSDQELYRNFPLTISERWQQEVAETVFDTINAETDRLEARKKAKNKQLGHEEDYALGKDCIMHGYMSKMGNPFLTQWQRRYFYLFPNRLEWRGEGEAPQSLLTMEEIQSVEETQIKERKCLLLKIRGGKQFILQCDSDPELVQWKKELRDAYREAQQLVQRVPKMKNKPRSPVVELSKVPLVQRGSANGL

[9] = molecular target: T3, Cyclin-dependent kinase-like 2 (Homo sapiens) (UniProt Q92772); assay: Selectivity interaction (KinomeScan (DiscoverX)) EUB0000045b CDKL2
T3 sequence (whole entry): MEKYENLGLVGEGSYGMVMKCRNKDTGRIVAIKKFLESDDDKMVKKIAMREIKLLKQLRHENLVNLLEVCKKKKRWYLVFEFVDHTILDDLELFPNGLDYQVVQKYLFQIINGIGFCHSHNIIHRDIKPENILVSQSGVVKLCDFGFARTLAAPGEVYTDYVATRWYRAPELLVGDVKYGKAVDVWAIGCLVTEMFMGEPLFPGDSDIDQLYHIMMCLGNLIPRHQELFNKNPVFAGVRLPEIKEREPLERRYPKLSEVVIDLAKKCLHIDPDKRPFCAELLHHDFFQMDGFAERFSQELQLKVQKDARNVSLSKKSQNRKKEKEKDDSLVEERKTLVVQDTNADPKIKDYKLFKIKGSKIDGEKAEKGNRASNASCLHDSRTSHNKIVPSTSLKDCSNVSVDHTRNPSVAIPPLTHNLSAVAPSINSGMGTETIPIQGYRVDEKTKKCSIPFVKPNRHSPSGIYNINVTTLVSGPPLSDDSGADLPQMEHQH

[10] = molecular target: Mitogen-activated protein kinase 10 (Homo sapiens, UniProt P53779); assay: Selectivity interaction (Ambit KINOMEscan and KiNATiv profiling in Jurkat cells) EUB0000090b MAPK10; type: cell-based; settings: at 1 µM
Mitogen-activated protein kinase 10, sequence (P53779 whole entry): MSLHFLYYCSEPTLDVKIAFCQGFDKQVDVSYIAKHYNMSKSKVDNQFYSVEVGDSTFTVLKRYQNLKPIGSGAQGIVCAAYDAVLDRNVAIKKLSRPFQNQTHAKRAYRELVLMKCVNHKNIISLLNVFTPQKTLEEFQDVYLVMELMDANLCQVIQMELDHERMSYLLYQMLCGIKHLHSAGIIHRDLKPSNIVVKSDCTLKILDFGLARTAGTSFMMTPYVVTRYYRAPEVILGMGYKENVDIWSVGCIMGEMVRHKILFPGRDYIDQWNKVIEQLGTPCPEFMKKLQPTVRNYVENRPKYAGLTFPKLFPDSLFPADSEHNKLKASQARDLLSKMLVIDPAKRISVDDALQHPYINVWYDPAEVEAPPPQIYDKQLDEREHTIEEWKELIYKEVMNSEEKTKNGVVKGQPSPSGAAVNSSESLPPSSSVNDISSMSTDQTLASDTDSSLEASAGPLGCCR

[11] = molecular target: T4, Mitogen-activated protein kinase 12 (Homo sapiens) (UniProt P53778); assay: Selectivity interaction (Ambit KINOMEscan and KiNATiv profiling in Jurkat cells) EUB0000090b MAPK12; type: cell-based; settings: at 1 µM
T4 sequence (whole entry): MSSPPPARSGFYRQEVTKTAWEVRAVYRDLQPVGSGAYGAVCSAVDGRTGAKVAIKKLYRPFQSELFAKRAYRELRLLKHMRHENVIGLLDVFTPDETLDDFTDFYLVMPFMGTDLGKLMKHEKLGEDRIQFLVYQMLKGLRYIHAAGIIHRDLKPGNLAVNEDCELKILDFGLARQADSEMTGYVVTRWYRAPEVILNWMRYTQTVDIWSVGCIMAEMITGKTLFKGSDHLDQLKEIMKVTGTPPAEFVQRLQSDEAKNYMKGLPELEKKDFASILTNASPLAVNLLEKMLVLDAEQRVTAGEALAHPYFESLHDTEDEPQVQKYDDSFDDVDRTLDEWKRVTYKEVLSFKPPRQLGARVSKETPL

[12] = molecular target: Protein kinase C eta type (Homo sapiens) (UniProt P24723); assay: Selectivity interaction (Kinase screening (Nanosyn)) EUB0000604a PRKCH
Protein kinase C eta type (Homo sapiens), sequence (P24723 whole entry): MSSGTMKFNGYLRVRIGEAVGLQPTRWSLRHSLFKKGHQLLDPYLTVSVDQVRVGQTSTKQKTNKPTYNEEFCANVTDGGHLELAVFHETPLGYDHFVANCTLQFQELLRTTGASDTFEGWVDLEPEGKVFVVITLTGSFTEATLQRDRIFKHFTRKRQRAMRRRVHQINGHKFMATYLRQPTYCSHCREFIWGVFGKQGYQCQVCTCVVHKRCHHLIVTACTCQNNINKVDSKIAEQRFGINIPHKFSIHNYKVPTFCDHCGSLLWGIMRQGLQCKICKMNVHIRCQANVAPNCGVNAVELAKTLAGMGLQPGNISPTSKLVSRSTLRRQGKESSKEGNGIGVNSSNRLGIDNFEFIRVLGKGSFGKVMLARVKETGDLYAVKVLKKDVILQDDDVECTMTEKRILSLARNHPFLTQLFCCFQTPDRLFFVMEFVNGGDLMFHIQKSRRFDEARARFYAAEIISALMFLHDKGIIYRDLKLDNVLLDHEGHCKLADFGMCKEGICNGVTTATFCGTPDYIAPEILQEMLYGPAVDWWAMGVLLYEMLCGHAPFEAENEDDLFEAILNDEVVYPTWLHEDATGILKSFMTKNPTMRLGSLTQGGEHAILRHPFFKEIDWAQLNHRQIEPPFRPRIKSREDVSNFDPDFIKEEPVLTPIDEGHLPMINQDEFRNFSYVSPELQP

[13] = molecular target: Serine/threonine-protein kinase OSR1 (Homo sapiens) (UniProt O95747); assay: Selectivity interaction (KinomeScan (DiscoverX)) EUB0001619a OXSR1; settings: at 1 µM
Serine/threonine-protein kinase OSR1 (Homo sapiens), sequence (O95747 2-527 limits assumed): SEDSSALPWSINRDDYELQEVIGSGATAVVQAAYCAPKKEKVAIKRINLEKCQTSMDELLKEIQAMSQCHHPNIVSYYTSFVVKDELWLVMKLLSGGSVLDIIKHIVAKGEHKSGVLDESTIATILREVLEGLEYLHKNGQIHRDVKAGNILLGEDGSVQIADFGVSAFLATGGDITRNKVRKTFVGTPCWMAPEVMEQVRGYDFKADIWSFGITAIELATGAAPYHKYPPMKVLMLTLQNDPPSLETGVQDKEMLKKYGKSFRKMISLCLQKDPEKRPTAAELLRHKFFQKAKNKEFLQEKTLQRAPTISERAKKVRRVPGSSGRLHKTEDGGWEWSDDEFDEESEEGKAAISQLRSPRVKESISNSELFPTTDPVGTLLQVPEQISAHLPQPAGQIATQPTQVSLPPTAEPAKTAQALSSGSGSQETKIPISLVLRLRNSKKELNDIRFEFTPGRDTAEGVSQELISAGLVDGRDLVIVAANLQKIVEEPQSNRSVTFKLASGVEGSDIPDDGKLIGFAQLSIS

Serine/threonine-protein kinase 38-like (Homo sapiens), sequence (Q9Y2H1 2-464 limits assumed): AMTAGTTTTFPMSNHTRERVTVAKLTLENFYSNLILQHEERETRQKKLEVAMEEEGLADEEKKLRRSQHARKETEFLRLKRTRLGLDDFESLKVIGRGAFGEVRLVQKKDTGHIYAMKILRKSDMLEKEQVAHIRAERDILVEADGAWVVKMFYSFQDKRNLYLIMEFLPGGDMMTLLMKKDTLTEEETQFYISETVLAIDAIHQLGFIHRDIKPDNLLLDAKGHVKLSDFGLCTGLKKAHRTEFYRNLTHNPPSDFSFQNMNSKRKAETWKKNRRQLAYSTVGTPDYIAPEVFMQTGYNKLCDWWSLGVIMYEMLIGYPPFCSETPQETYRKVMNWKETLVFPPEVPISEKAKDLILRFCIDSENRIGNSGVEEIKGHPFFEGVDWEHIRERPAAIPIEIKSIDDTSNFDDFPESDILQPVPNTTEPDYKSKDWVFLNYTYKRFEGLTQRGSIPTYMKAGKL

Question: Which % of control [1] does the source give for `CCN(CC)CCCCNc1ncc2cc(-c3cc(OC)cc(OC)c3)c(NC(=O)NC(C)(C)C)nc2n1` here?
Answer: Its % of control is 100%.

Question: How did the % of control [2] turn out when `CN(C)CCOc1ccc(-c2nc(-c3ccncc3)c(-c3ccc4c(c3)CC/C4=N\O)[nH]2)cc1` was run?
Answer: The % of control was 45%.

Question: Which % of control ([3]; at 1 µM) does the source give for `C=CC(=O)Nc1cccc(C(=O)Nc2ccc(Nc3cc(-c4[nH]c(SC)nc4C)ccn3)cc2)c1` here?
Answer: Its % of control is 90%.

Question: What about the % of control ([3]; at 5 µM) of the same compound?
Answer: Its % of control is 80%.

Question: How did the % of control [4] turn out when `Nc1cnc(N2CCc3cc(S(=O)(=O)Nc4c(F)cc(Cl)cc4F)cc(N4CCCC4=O)c32)nc1` [TP-020n] was run?
Answer: Its % of control is 100%.

Question: For `CC(=O)Nc1cccc(-n2c(=O)n(C3CC3)c(=O)c3c(Nc4ccc(I)cc4F)n(C)c(=O)c(C)c32)c1`, which % of control [5] is on record?
Answer: The % of control was 104%.

Question: With `CC[C@@H]1[C@H](F)C(=O)N[C@@H]1COc1nccc2cc(C(N)=O)c(OC)cc12` [ZIMLOVISERTIB] as the compound, how does the % of inhibition [6] read?
Answer: The % of inhibition was 4.03%.

Question: And the % of inhibition [7]?
Answer: The % of inhibition was 11.6%.

Question: For `COc1cc(Nc2nc(C)cc(-c3cnn4nc(OC)ccc34)n2)cc(C(F)(F)F)c1`, which % of control [8] is on record?
Answer: The % of control was 100%.

Question: Which results are given for `C=CC(=O)Nc1cc(-n2c(=O)ccc3cnc4ccc(-c5ccc(NS(C)(=O)=O)cc5)cc4c32)ccc1C`?
Answer: % of control ([9]; at 1 µM): 93%; % of control ([9]; at 10 µM): 93%

Question: What does the source list for `CN(C)C/C=C/C(=O)Nc1ccc(C(=O)N2CCCC(Nc3ncc(Cl)c(-c4c[nH]c5ccccc45)n3)C2)cc1` (stereo not given)?
Answer: % of control [10]: 1%; % of control [11]: 78%

Question: How did the % of inhibition [12] turn out when `Cc1cnc(Nc2ccc(F)cc2Cl)nc1-c1c[nH]c(C(=O)N[C@H](CO)c2cccc(Cl)c2)c1` was run?
Answer: The % of inhibition was 2%.

Question: Which % of control [13] does the source give for `N#Cc1cccc(-c2c[nH]c3ncnc(N4CCOCC4)c23)c1` here?
Answer: Its % of control is 90%.
